Measurements published in patent US20220395500A1, “SMALL MOLECULE ACTIVATORS OF INTERFERON REGULATORY FACTOR 3 AND METHODS OF USE THEREOF” (Neuralexo, Inc., priority 2020, published 2022).
Read-outs that look alike come from different tables or passages of the source.

How the values were obtained:
[1] = tested on: IRF-Lucia luciferase reporter (ISRE) in THP1-Dual cells; assay: THP1-Dual IRF-Lucia luciferase reporter assay (ISRE activation); type: cell-based, human; settings: for EC50: Homo sapiens, read-out: THP1 IRF EC50; for Average ISRE/NFκB (Range) / Average ISRE % Activation: human THP1 pilot screen, 10 μM, 3 screens; for Average ISRE % Activation: 24 hours, percent of LPS activation signal +/− SD
Procedure: THP1 Dual (InvivoGen) cell suspensions were cultured in RPMI 1640 (Hyclone, Logan, Utah) supplemented with 10% fetal bovine serum (Hyclone), 100 U/mL Normocin (Invivogen), and 50 U/mL PenStrep (Gibco, Dublin, Ireland) between a density of 7·10^5-2·10^6 cells/mL. Every other passage, media was supplemented with 5 U/mL Blasticidin and 100 U/mL Zeocin to maintain the expression constructs. White, flat-bottom 384-well plates (Greiner, Kremsmunster, Austria, 781080) were seeded with 2.5·10^4 cells/well in a total of 50 μL media containing 5 ng/mL phorbolmyristic acid (PMA) using a Matrix WellMate (Thermo Scientific) dispenser. After 48 hours of incubation at 37° C., media was removed using a BioTek ELx405 CW plate washer set to aspirate and wash each well three times with 65 μL 1×PBS. Plates were reloaded with 50 μL media without PMA and treatments added. Lipopolysaccharide in dimethylsulfoxide (DMSO) was transferred to control wells using a HP D300 microdispenser to a final concentration of 313 ng/mL. Compounds from chemical library plates were copied using a Sciclone (Caliper LifeSciences) mounted with a 384-pin transfer tool to obtain a final concentration of 10 μM. After incubation with treatments for 24 hours, 10 μL of supernatant media from each well was transferred into a white, flat-bottom 384-well plate for luminescence readout and a black-walled, clear flat-bottom 384-well plate for absorbance readout.
Specifically, to enable screening of novel chemical entities (NCEs) in a larger screening effort, a robust high-throughput cell-based assay system for primary hit identification of ISRE activators based on the above-mentioned target validation was desired. Human ISRE activity was verified using a THP-1 monocyte line containing the NF-κB-SEAP and IRF-Lucia luciferase dual reporter (THP1-Dual; Invivogen) that features two reporter genes, SEAP (secreted embryonic alkaline phosphatase) and Lucia luciferase, thereby enabling the simultaneous study of the NF-κB and IRF signalling pathways. The Lucia luciferase reporter is under the control of an ISG54 (interferon-stimulated gene) minimal promoter in conjunction with five IFN-stimulated response elements. The SEAP gene is driven by an IFN-β minimal promoter fused to five copies of the NF-κB consensus transcriptional response element and three copies of the c-Rel binding site. Both reporter proteins are readily measurable in the cell culture supernatant when using QUANTI-LUC™ and QUANTI-Blue SEAP detection reagents.
The responsiveness of the human THP-1 Dual cell line was evaluated in an array of assay conditions to obtain sensitive and reproducible results for the activation of IRF and NF-κB reporters. […] All transfer steps are fully automated using high throughput robotic equipment. Briefly, cells are seeded in differentiation medium using a Matrix WellMate fitted with the WellMate Stacker (Thermo Scientific) and incubated at 37° C. with 5% CO2 for 48 h. Following differentiation, cells are washed using a BioTek ELx405 Select CW plate washer and growth medium added with the Matrix WellMate. Programmed control treatments are added to wells using a D300 digital dispenser fitted with T8+ dispense heads (Hewlett Packard) designed to dispense nanoliter quantities of material. Compounds from library plates are added using a pin tool fitted to a Sciclone ALH 3000 Workstation (Caliper Life Sciences) programmed with Maestro v4.4. After treatment, plates are returned to incubators for 24 hours. To measure reporter expression, supernatant is collected using the Sciclone and dispensed into 2 plates: 1) a white 384-well assay plate for Lucia luminescence measurements and 2) a clear-bottom black 384-well assay plate for SEAP absorbance measurements.

[2] = THP1-Dual cytotoxicity (Cell Titer Glo, ATP); type: cell-based, human; settings: human, THP1-Dual cells, read-out: Thp1 cytotox CC50
Source text: FIG. 9C is a CC50 (50% cytotoxic concentration) graph of AV-C dependent IRF activation in THP1-Dual cells, determined with an 8-point dose response experiment. Cell viability was monitored based on quantitation of ATP present, as an indicator of metabolically active cells, where luminescence is proportional to the amount of ATP present, using Cell-Titer Glo (Promega).
The OTRADI Small Molecule Library of approximately 246,000 diverse compounds (see below for description) was screened using the THP1-Dual based HTS platform described above. All transfer steps in the screen are fully automated, thus reducing variability. Primary screening included a single data point or dose for each molecule. After data normalization was applied for each assay run, “hit” selection was performed on the plates that pass the quality control (QC) criterion. Hits were defined as samples having values above the activity cutoff determined based on noise level of the assay to reduce false positive rates. In the pilot study discussed above this activity value was >3σ above the ISRE mean with the added criteria of NFκB activation being lower than […] from the mean to identify IRF selective compounds. The ratio of ISRE:NFκB activity was also calculated as a selectivity index for prioritizing hit selection. Primary hits underwent secondary screening to determine the 50% effective concentration (EC50) and 50% cytotoxic concentration (CC50) of these agents using an 8-point dose-response curve in the human THP1-Dual cells. Cytotoxicity was measured in the plate using Cell Titer Glo (Promega). Identified candidate compounds were further screened (orthogonal screen) for cross species activity in the validated mouse J774-Dual assay using an 8-point dose-response format to determine EC50 and CC50 values as well as ISRE:NFκB ratios. A general process flow for the experimental design laid out above is depicted at FIG. 12.

J774-Dual cytotoxicity = type: cell-based, mouse; settings: mouse, J774-Dual cells, read-out: J774 cytotox CC50
Procedure: The OTRADI Small Molecule Library of approximately 246,000 diverse compounds (see below for description) was screened using the THP1-Dual based HTS platform described above. All transfer steps in the screen are fully automated, thus reducing variability. Primary screening included a single data point or dose for each molecule. After data normalization was applied for each assay run, “hit” selection was performed on the plates that pass the quality control (QC) criterion. Hits were defined as samples having values above the activity cutoff determined based on noise level of the assay to reduce false positive rates. […] The ratio of ISRE:NFκB activity was also calculated as a selectivity index for prioritizing hit selection. Primary hits underwent secondary screening to determine the 50% effective concentration (EC50) and 50% cytotoxic concentration (CC50) of these agents using an 8-point dose-response curve in the human THP1-Dual cells. Cytotoxicity was measured in the plate using Cell Titer Glo (Promega). Identified candidate compounds were further screened (orthogonal screen) for cross species activity in the validated mouse J774-Dual assay using an 8-point dose-response format to determine EC50 and CC50 values as well as ISRE:NFκB ratios. A general process flow for the experimental design laid out above is depicted at FIG. 12.

[3] = THP1-Dual, Human Reporter Cell Line THP1
[4] = THP1-Dual, Human Reporter Cell Line, 8-point dose response

Molecule | EC50 [1, 3] [µM] | CC50 ([2]; Human Reporter Cell Line THP1) [µM] | CC50 (J774-Dual cytotoxicity; Mouse Reporter Cell Line J774) [µM] | CC50 ([2]; Human Reporter Cell Line) [µM] | CC50 (J774-Dual cytotoxicity; Mouse Reporter Cell Line) [µM] | also measured
COc1cc2nc(-c3ccccc3)nc(N3CCN(CCN4CCCC4)CC3)c2cc1OC [ND-98] | 3.03 | 18.1 | 19.3 | – | – | –
COc1c(Cl)cc(C(=O)Nc2cc(-c3nc4cc(C)c(C)cc4o3)ccc2C)cc1Cl [ND-69] | ~5.39 | > 25 | > 25 | – | – | –
Cc1ccc(-c2nc3ccccc3o2)cc1NC(=O)c1ccc(C)c([N+](=O)[O-])c1 [ND-30] | 15.2 | > 25 | > 25 | – | – | –
COc1cc(C(=O)Nc2cc(-c3nc4ccccc4s3)ccc2C)cc(OC)c1OC [ND-37] | 11.8 | > 25 | > 25 | – | – | –
COc1ccc2oc(-c3ccc(C)c(NC(=O)c4ccc(N5CCOCC5)c([N+](=O)[O-])c4)c3)nc2c1 [ND-35] | 2.13 | 35.7 | > 25 | – | – | –
COc1ccc(C(=O)Nc2nc(-c3cc4ccccc4oc3=O)co2)c2ccccc12 [ND-18] | 13.5 | – | – | – | – | –
O=C(Nc1nc(-c2cc3ccccc3oc2=O)cs1)c1ccc(OCc2ccccc2)cc1 [ND-22] | 3.83 | 9.79 | – | – | – | –
COc1ccc(-c2nc3cc(C(C)C)ccc3o2)cc1NC(=O)c1cc(C)cc(C)c1 [ND-91] | ~5.87 | > 25 | > 25 | – | – | –
COc1ccc(C(=O)Nc2nc(-c3cc4ccccc4oc3=O)cs2)cn1 [ND-28] | ~3.3 | > 25 | > 25 | – | – | –
COc1ccc(C(=O)Nc2cc(-c3nc4cc(C)c(C)cc4o3)ccc2Cl)cc1[N+](=O)[O-] [ND-50] | ~11.9 | > 25 | > 25 | – | – | –
COc1ccc(C(=O)Nc2cccc(-c3nc4ncccc4o3)c2)cc1[N+](=O)[O-] [ND-41] | 2.04 | > 25 | > 25 | – | – | –
Cc1cccc([C@H](C)c2cnc[nH]2)c1C [ND-76] | ~0.716 | > 25 | > 25 | – | – | –
Cc1ccc2nc(-c3ccc(C)c(NC(=O)c4ccc(C)c([N+](=O)[O-])c4)c3)oc2c1 [ND-31] | ~3.14 | 22.3 | > 25 | – | – | –
COC(=O)COc1cccc(NC(=O)c2ccc(NC(=O)c3ccco3)cc2)c1 [NC-1] | – | – | – | 27.4 | > 25 | EC50 [1, 4]: 2.55 µM
COc1ccc2oc(-c3ccc(C)c([N+](=O)[O-])c3)nc2c1 [ND-84] | ~19.6 | > 25 | > 25 | – | – | –
COC1=CC(=O)C(O)=C/C1=C\C=C\c1ccccc1 [OTR-0001624-001 (Obtusaquinone), Obtusaquinone, reference compound] | – | – | – | – | – | Average ISRE/NFκB (Range) [1]: 0.2 (0.2-0.3); Average ISRE % Activation [1]: 1.7 +/− 0.6%
COc1ccc(C(=O)Nc2nc(-c3cc4ccccc4oc3=O)cs2)nc1 [ND-27] | 4.68 | > 25 | > 25 | – | – | –

Molecule | EC50 [1, 3] [µM] | CC50 ([2]; Human Reporter Cell Line THP1) [µM] | CC50 (J774-Dual cytotoxicity; Mouse Reporter Cell Line J774) [µM] | CC50 ([2]; Human Reporter Cell Line) [µM] | CC50 (J774-Dual cytotoxicity; Mouse Reporter Cell Line) [µM] | also measured
NC(=O)c1cc(NC(=O)c2ccccc2)ccc1N1CCOCC1 [NB-4] | ~72.1 | > 25 | > 25 | – | – | activation at 25 µM ([1]; THP1-Dual, 24 h, Human Reporter Cell Line THP1, @25 uM, read-out: THP1 IRF % activation at peak): 5.61%
COC(=O)c1ccc(N2CCN(C(=O)c3cccs3)CC2)cc1 [NA-47] | – | – | – | > 25 | > 25 | EC50 [1, 4]: 0.358 µM
CC(C)c1ccc(C(=O)Nc2ccc(N3CCN(C(=O)c4ccco4)CC3)cc2)cc1 [NA-4] | – | – | – | 37.8 | > 25 | EC50 [1, 4]: ~13.2 µM
COc1ccc(C(=O)Nc2cc(-c3nc4cc(C)cc(C)c4o3)ccc2C)cc1[N+](=O)[O-] [ND-8] | 2.95 | > 25 | > 25 | – | – | –
Methapyrilene Hydrochloride [reference compound] | – | – | – | – | – | Average ISRE/NFκB (Range) [1]: 1.4 (0.4-2.3)
O=C(Nc1ccc(N2CCN(C(=O)c3cccs3)CC2)cc1)c1ccc(Br)c2ncccc12 [NA-18] | – | – | – | > 25 | > 25 | EC50 [1, 4]: 3.08 µM
COc1ccc(C(=O)Nc2ccc(N3CCN(C(=O)c4cccs4)CC3)cc2)cc1[N+](=O)[O-] [NA-46] | – | – | – | > 25 | > 25 | EC50 [1, 4]: 0.109 µM
O=C(Nc1ccc(N2CCN(C(=O)c3cccs3)CC2)cc1)c1cc(Cl)ccc1Cl [NA-43] | – | – | – | > 25 | > 25 | EC50 [1, 4]: ~10.8 µM
O=C(Nc1ccc(N2CCN(C(=O)c3cccs3)CC2)cc1)c1ccc(OCc2cccnc2)cc1 [NA-61] | – | – | – | – | – | EC50 [1, 4]: 2.27 µM
CCN(CC)CCCC(C)Nc1c2ccc(Cl)cc2nc2ccc(OC)cc12.Cl.Cl (stereo not shown) [Quinacrine Hydrochloride, reference compound] | – | – | – | – | – | Average ISRE/NFκB (Range) [1]: 1.4 (1.0-2.0); Average ISRE % Activation [1]: 5.7 +/− 2.9%
O=C(Nc1ccc(N2CCN(C(=O)c3cccs3)CC2)cc1)c1cccc2ccccc12 [NA-11] | – | – | – | > 25 | > 25 | –
O=C(Cc1cc(Br)cc(Br)c1)Nc1ccc(N2CCN(C(=O)c3cccs3)CC2)cc1 [NA-9] | – | – | – | > 25 | > 25 | –
O=C(Nc1ccc(N2CCN(C(=O)c3cccc(Cl)c3)CC2)cc1)c1ccc(OCc2ccccc2)cc1 [NA-48] | – | – | – | > 25 | > 25 | –
Cc1cc2nc(-c3ccc(C)c(NC(=O)c4cc([N+](=O)[O-])ccc4Cl)c3)oc2cc1C [ND-33] | – | > 25 | > 25 | – | – | –
O=C(Nc1ccc(N2CCN(C(=O)c3cccs3)CC2)cc1)c1ccc(Br)o1 [NA-8] | – | – | – | > 25 | > 25 | –
Cc1ccc(-c2nc3cc(NC(=O)c4ccc(C)c([N+](=O)[O-])c4)ccc3o2)cc1 [ND-49] | – | 5.52 | > 25 | – | – | –
